Assay results taken from publication PMC8621208, “Antiseptic 9-Meric Peptide with Potency against Carbapenem-Resistant Acinetobacter baumannii Infection” (International Journal of Molecular Sciences, 2021).
In brackets after ≈: the same amount, converted by molar mass. Where two headings read alike, the source gives them in different places. Where a SMILES comes first, the peptide text is derived from it. Where no end group is shown, it is not given here. [ ]: non-standard residue; d: D form.

Columns and labels:
P. aeruginosa = assay: MIC, broth dilution; type: cell-based, Pseudomonas aeruginosa KCCM 11328; settings: 16 h, MH media, read-out: Minimal Inhibitory Concentration (MIC)
Text: (§1) Escherichia coli KCTC 1682 was obtained from the Korean Collection for Type Cultures (KCTC) (Jeongeup-si, Korea), Acinetobacter baumannii KCCM 40203, Pseudomonas aeruginosa KCCM 11328 from the Korea Culture Center of Microorganisms (KCCM) (Seoul, Korea). Klebsiella pneumoniae NCCP 16054 were obtained from the National Culture Collection for Pathogens (NCCP) (Osong, Korea). Additionally, two carbapenem-resistant E. coli (CREC E1 and E2), 11 carbapenem-resistant A. baumannii (CRAB C0–C10) and two carbapenem-resistant K. pneumoniae (CRKP K1 and K2) were isolated from the patients, who presented symptoms and signs of infection at Korea University Anam Hospital (Seoul, Korea) (IRB registration no. 2020AN0157, 4 March 2021). CRAB C0–C10 have the OXA-23 gene with carbapenem-resistance.
(§2) The minimum inhibitory concentrations (MIC) were determined using broth dilution method. Briefly, all the mentioned bacterial strains were grown overnight at 37 °C by Muller–Hinton (MH) media. […] After 16 h incubation, the bacterial growth was read at 600 nm using a SpectraMAX microplate reader (Molecular Devices, San Jose, CA, USA).

CRKP K1 = assay: MIC, broth dilution; type: cell-based, carbapenem-resistant K. pneumoniae; settings: read-out: Minimal Inhibitory Concentration (MIC)
Text: as §1, §2

CRKP K2 = assay: MIC, broth dilution; type: cell-based, carbapenem-resistant K. pneumoniae; settings: read-out: Minimal Inhibitory Concentration (MIC)
Text: as §1, §2

CRAB C0 [1] = type: cell-based, carbapenem-resistant A. baumannii; settings: peptide pre-incubated 6 h at 37 °C
Procedure: (§3) All the peptides at their MICs were pre-incubated with proteolytic enzymes such as trypsin and α-chymotrypsin (10,000:1; peptide: enzyme ratio) for 6 h at 37 °C. Then, 100 μL of peptide-protease cocktail was added to the 100 µL bacterial suspension (E. coli, A. baumannii and CRAB C0, 2 × 10^5 CFU/mL) and further incubated for 16 h at 37 °C. Bacterial suspension without peptide and protease served as negative control. The analysis was repeated at three times using independent experiments, and the degree of bacterial growth was measured at 600 nm using a microplate reader.

A. baumannii [2] = assay: MIC, broth dilution; type: cell-based, Acinetobacter baumannii KCCM 40203; settings: 16 h, MH media, read-out: Minimal Inhibitory Concentration (MIC)
Text: as §1, §2

CRAB C6 = assay: MIC, broth dilution; type: cell-based, carbapenem-resistant A. baumannii; settings: read-out: Minimal Inhibitory Concentration (MIC)
Text: as §1, §2

CRAB C5 = assay: MIC, broth dilution; type: cell-based, carbapenem-resistant A. baumannii; settings: read-out: Minimal Inhibitory Concentration (MIC)
Text: as §1, §2

CRAB C4 = assay: MIC, broth dilution; type: cell-based, carbapenem-resistant A. baumannii; settings: read-out: Minimal Inhibitory Concentration (MIC)
Text: as §1, §2

CRAB C7 = assay: MIC, broth dilution; type: cell-based, carbapenem-resistant A. baumannii; settings: read-out: Minimal Inhibitory Concentration (MIC)
Text: as §1, §2

CRAB C0 [3] = assay: MIC, broth dilution; type: cell-based, carbapenem-resistant A. baumannii; settings: read-out: Minimal Inhibitory Concentration (MIC)
Text: as §1, §2

CRAB C10 = assay: MIC, broth dilution; type: cell-based, carbapenem-resistant A. baumannii; settings: read-out: Minimal Inhibitory Concentration (MIC)
Text: as §1, §2

CRAB C2 = assay: MIC, broth dilution; type: cell-based, carbapenem-resistant A. baumannii; settings: read-out: Minimal Inhibitory Concentration (MIC)
Text: as §1, §2

CRAB C3 = assay: MIC, broth dilution; type: cell-based, carbapenem-resistant A. baumannii; settings: read-out: Minimal Inhibitory Concentration (MIC)
Text: as §1, §2

CRAB C9 = assay: MIC, broth dilution; type: cell-based, carbapenem-resistant A. baumannii; settings: read-out: Minimal Inhibitory Concentration (MIC)
Text: as §1, §2

CRAB C8 = assay: microbe, parasite or virus in culture; settings: CRAB C8
Text: as §1, §2

K. pneumoniae = assay: microbe, parasite or virus in culture; settings: 16 h
Text: as §1, §2

CRAB C1 = assay: microbe, parasite or virus in culture; settings: CRAB C1
Text: as §1, §2

CREC E2 = assay: MIC, broth dilution; type: cell-based, carbapenem-resistant E. coli; settings: read-out: Minimal Inhibitory Concentration (MIC)
Text: as §1, §2

CREC E1 = assay: MIC, broth dilution; type: cell-based, carbapenem-resistant E. coli; settings: read-out: Minimal Inhibitory Concentration (MIC)
Text: as §1, §2

[4] = system: human kidney (HK)-2 cells; assay: Cytotoxicity, WST-8 assay; type: cell-based; settings: 24 h; for Toxicity in HK-2 cells: up to 100 μM
Procedure: (§4) Figure 6 In vitro cytotoxicity of Pro9-3 and their analogues. (A) Dose-response curve represent the hemolytic activity of peptides against sheep red blood cell (sRBC). Concentration-dependent (0–100 μM) toxic effects induced by peptides on (B) RAW 264.7 murine macrophage cells and (C) human kidney (HK)-2 cells for 24 h. Melittin was used as a control. Statistical analysis was performed using two-way analysis of variance (ANOVA) with Dunnett’s comparison test. Values are expressed as mean ± SEM of three independent experiments. * p < 0.05, ** p < 0.01, *** p < 0.001, and ns, non-significant compared with the control.
(§5) RAW 264.7 mouse macrophage cells and Human kidney (HK)-2 cells were obtained from Korean cell line bank (Seoul, Korea) and the cells were maintained in DMEM culture media (Thermo Fischer Scientific Inc., Waltham, MA, USA) supplemented with 10% fetal bovine serum, 1% penicillin/streptomycin at 37 °C in a humidified 5% CO2 incubator. The cytotoxicity of the peptides was analyzed using WST-8 cell proliferation assay (Biomax Co, Ltd., Seoul, Korea), and the experiment was performed according to the kit protocol. Briefly, cells (1 × 10^4) were seeded in 96-well plate and the peptides treatment (0–100 μM) were initiated at 80% confluency and then for 24 h. After incubation, WST-8 reagent was added and the change in absorbance was read at 450 nm against reagent blank, and values are expressed as percent cell survival.

[5] = system: sheep red blood cells (sRBC); assay: Hemolytic assay; type: cell-based; settings: 100 μM
Procedure: The peptide-induced toxicity was determined by hemolytic against Sheep red blood cells (sRBC). Briefly, Fresh sRBC were washed at least three times with phosphate-buffered saline (PBS) and the debris were removed by centrifugation (1000× g for 5 min, 4 °C). All the peptides including melittin control (0.2–100 μM) and positive control (1% (v/v) triton X-100) were incubated with 4% (v/v) sRBC for 1 h at 37 °C followed by centrifugation at 1000× g for 5 min. The supernatant was measured at 405 nm using a microplate reader.

[6] = system: RAW 264.7 murine macrophage cells; assay: Cytotoxicity, WST-8 assay; type: cell-based, mouse; settings: 24 h
Procedure: as §4, §5

E. coli [7] = assay: MIC, broth dilution; type: cell-based, Escherichia coli KCTC 1682; settings: E. coli; 16 h, MH media; read-out: Minimal Inhibitory Concentration (MIC)
Text: as §1, §2

CRAB C0 outer membrane = assay: Outer membrane permeability, NPN uptake; type: cell-based, carbapenem-resistant A. baumannii
Procedure: The effect of peptides on the disturbance of CRAB C0 outer membrane was analyzed using 1-N-phenylnaphthylamine (NPN, Sigma-Aldrich, St. Louis, MO, USA) uptake assay, as previously described. Briefly, CRAB C0 cell suspensions were mixed with NPN (1 mM) and the background fluorescence was recorded for subtraction (excitation λ = 350 nm, emission λ = 420 nm) using RF-6000PC fluorescent spectrophotometer (Shimadzu Scientific Instruments, Kyoto, Japan). Changes in the NPN fluorescence were recorded after addition of different concentrations of peptides and values are expressed as—fluorescence intensity (A.U.).

E. coli [8] = type: cell-based, Escherichia coli; settings: peptide pre-incubated 6 h at 37 °C
Procedure: as §3

A. baumannii [9] = type: cell-based, Acinetobacter baumannii; settings: peptide pre-incubated 6 h at 37 °C
Procedure: as §3

RLWLAIWRR-NH2 [Pro9-3] showed an MIC (P. aeruginosa) of 64 µM, an MIC (CRKP K1) of 64 µM and an MIC (CRKP K2) of 64 µM. For the same compound, the “Minimal Inhibitory Concentration (MIC)” value (CRAB C0 [1]; CRAB C0 + Trypsin) was over 64 µM, the “Minimal Inhibitory Concentration (MIC)” value (CRAB C0 [1]; CRAB C0 + α-Chymotrypsin) was over 64 µM and the MIC (A. baumannii [2]) was 16 µM. It also gave an MIC (CRAB C6) of 16 µM, an MIC (CRAB C5) of 16 µM and an MIC (CRAB C4) of 16 µM. It also gave an MIC (CRAB C7) of 16 µM, an MIC (CRAB C0 [3]) of 8 µM and an MIC (CRAB C10) of 16 µM. For the same compound, the MIC (CRAB C2) was 16 µM, the MIC (CRAB C3) was 16 µM and the MIC (CRAB C9) was 16 µM. For the same compound, the “Minimal Inhibitory Concentration (MIC)” value (CRAB C8) was 16 µM, the “Minimal Inhibitory Concentration (MIC)” value (K. pneumoniae) was 64 µM and the “Minimal Inhibitory Concentration (MIC)” value (CRAB C1) was 16 µM. The MIC (CREC E2) was 16 µM, the MIC (CREC E1) was 16 µM and the “Toxicity in HK-2 cells” value [4] was “neither R-Pro9-3 nor Pro9-3 (parent) showed toxicity”. For the same compound, the Hemolytic activity [5] was 2.5%, the “Toxicity in RAW 264.7 cells” value ([6]; up to 100 μM) was “neither R-Pro9-3 nor Pro9-3 (parent) showed toxicity” and the MIC (E. coli [7]) was 16 µM.
For `CC[C@@H](C)[C@@H](NC(=O)[C@@H](C)NC(=O)[C@@H](CC(C)C)NC(=O)[C@@H](Cc1c[nH]c2ccccc12)NC(=O)[C@@H](CC(C)C)NC(=O)[C@H](N)CCCNC(=N)N)C(=O)N[C@H](Cc1c[nH]c2ccccc12)C(=O)N[C@H](CCCNC(=N)N)C(=O)N[C@H](CCCNC(=N)N)C(N)=O` [Pro9-3D, rlwlaiwrr-NH2] (H-[dR][dL][dW][dL][dA][dI][dW][dR][dR]-NH2), the MIC (P. aeruginosa) was 8 µM (≈ 10.1 µg/mL), the MIC (CRKP K1) was 16 µM (≈ 20.3 µg/mL) and the MIC (CRKP K2) was 8 µM (≈ 10.1 µg/mL). For the same compound, the “Minimal Inhibitory Concentration (MIC)” value (CRAB C0 [1]; CRAB C0 + Trypsin) was 4 µM, the “Minimal Inhibitory Concentration (MIC)” value (CRAB C0 [1]; CRAB C0 + α-Chymotrypsin) was 4 µM and the MIC (A. baumannii [2]) was 4 µM (≈ 5.07 µg/mL). For the same compound, the MIC (CRAB C6) was 8 µM (≈ 10.1 µg/mL), the MIC (CRAB C5) was 8 µM (≈ 10.1 µg/mL) and the MIC (CRAB C4) was 8 µM (≈ 10.1 µg/mL). It also gave an MIC (CRAB C7) of 8 µM (≈ 10.1 µg/mL), an MIC (CRAB C0 [3]) of 4 µM (≈ 5.07 µg/mL) and an MIC (CRAB C10) of 8 µM (≈ 10.1 µg/mL). It also gave an MIC (CRAB C2) of 8 µM (≈ 10.1 µg/mL), an MIC (CRAB C3) of 8 µM (≈ 10.1 µg/mL) and an MIC (CRAB C9) of 8 µM (≈ 10.1 µg/mL). The “Minimal Inhibitory Concentration (MIC)” value (CRAB C8) was 8 µM, the “Minimal Inhibitory Concentration (MIC)” value (K. pneumoniae) was 8 µM and the “Minimal Inhibitory Concentration (MIC)” value (CRAB C1) was 8 µM. For the same compound, the MIC (CREC E2) was 8 µM (≈ 10.1 µg/mL), the MIC (CREC E1) was 8 µM (≈ 10.1 µg/mL) and the “Toxicity in human kidney (HK)-2 cells” value ([4]; 100 μM) was 22.9%. For the same compound, the Hemolytic activity [5] was 1.9%, the “Toxicity in RAW 264.7 cells” value ([6]; 100 μM) was 44.5% and the MIC (E. coli [7]) was 8 µM (≈ 10.1 µg/mL). For the same compound, the “NPN uptake (outer membrane permeabilization)” value (CRAB C0 outer membrane) was “greater NPN uptake than their L-form peptides”.
Compound RRWIALWLR-NH2 [R-Pro9-3] has an MIC (P. aeruginosa) of 64 µM, an MIC (CRKP K1) of 32 µM and an MIC (CRKP K2) of 32 µM. For the same compound, the “Minimal Inhibitory Concentration (MIC)” value (E. coli [8]; E. coli + Trypsin) was over 64 µM, the “Minimal Inhibitory Concentration (MIC)” value (E. coli [8]; E. coli + α-Chymotrypsin) was 64 µM and the “Minimal Inhibitory Concentration (MIC)” value (CRAB C0 [1]; CRAB C0 + Trypsin) was 64 µM. For the same compound, the “Minimal Inhibitory Concentration (MIC)” value (CRAB C0 [1]; CRAB C0 + α-Chymotrypsin) was 64 µM, the MIC (A. baumannii [2]) was 16 µM and the MIC (CRAB C6) was 32 µM. The MIC (CRAB C5) was 32 µM, the MIC (CRAB C4) was 32 µM and the MIC (CRAB C7) was 32 µM. It also gave an MIC (CRAB C0 [3]) of 8 µM, an MIC (CRAB C10) of 16 µM and an MIC (CRAB C2) of 32 µM. For the same compound, the MIC (CRAB C3) was 32 µM, the MIC (CRAB C9) was 16 µM and the “Minimal Inhibitory Concentration (MIC)” value (CRAB C8) was 32 µM. For the same compound, the “Minimal Inhibitory Concentration (MIC)” value (K. pneumoniae; K. pneumoniae, MH media) was 32 µM, the “Minimal Inhibitory Concentration (MIC)” value (CRAB C1) was 32 µM and the MIC (CREC E2) was 16 µM. The MIC (CREC E1) was 16 µM, the “Toxicity in HK-2 cells” value [4] was “neither R-Pro9-3 nor Pro9-3 (parent) showed toxicity” and the Hemolytic activity [5] was 3.4%. The “Toxicity in RAW 264.7 cells” value ([6]; up to 100 μM) was “neither R-Pro9-3 nor Pro9-3 (parent) showed toxicity”, the MIC (E. coli [7]) was 16 µM and the “Minimal Inhibitory Concentration (MIC)” value (A. baumannii [9]; A. baumannii + Trypsin) was over 64 µM. For the same compound, the “Minimal Inhibitory Concentration (MIC)” value (A. baumannii [9]; A. baumannii + α-Chymotrypsin) was over 64 µM.
